According to ChEMBL document CHEMBL1201862, “PubChem BioAssay data set” (2004):
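Five concentrations, 48 hours, 96-well plates. The concentration for 50% growth inhibition is given as GI50.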 The source made the active and inactive calls. No stated cut-off is given here; in the data, active = GI50 up to about 1.1 µM and inactive = higher.

Columns and labels:
Experiment in all cases: NCI tumour cell line growth inhibition, 48 h
HCT-116 = system: HCT-116
UACC-62 = system: UACC-62
CAKI-1 = system: CAKI-1
DMS-114 = system: DMS-114
SF-295 = system: SF-295
ACHN = system: ACHN
786-0 = system: 786-0
OVCAR-4 = system: OVCAR-4
OVCAR-3 = system: OVCAR-3
NCI-H226 = system: NCI-H226
SR = system: SR
HL-60 = system: HL-60
SNB-75 = system: SNB-75
SN12C = system: SN12C
OVCAR-5 = system: OVCAR-5
PC-3 = system: PC-3
KM-20L2 = system: KM-20L2
HCC 2998 = system: HCC 2998
HCT-15 = system: HCT-15
T47D = system: T47D

SMILES | GI50 (HCT-116) | GI50 (UACC-62) | GI50 (CAKI-1) | GI50 (DMS-114) | GI50 (SF-295) | GI50 (ACHN) | GI50 (786-0) | GI50 (OVCAR-4) | GI50 (OVCAR-3) | GI50 (NCI-H226) | GI50 (SR) | GI50 (HL-60) | GI50 (SNB-75) | GI50 (SN12C) | GI50 (OVCAR-5) | GI50 (PC-3) | GI50 (KM-20L2) | GI50 (HCC 2998) | GI50 (HCT-15) [µM] | GI50 (T47D)
Cc1ccc2c(ccc(/C=C/c3ccc(O)c4ncccc34)[n+]2C)c1 | 3.87 µM (inactive) | 8.04 µM (inactive) | 5.55 µM (inactive) | 0.489 µM (active) | 13.8 µM (inactive) | 10 µM (inactive) | 5.57 µM (inactive) | 5.09 µM (inactive) | 0.817 µM (active) | 24.8 µM (inactive) | 2.74 µM (inactive) | 19.5 µM (inactive) | 19.5 µM (inactive) | 12.1 µM (inactive) | 25.2 µM (inactive) | > 25.3 µM (inactive) | 4.85 µM (inactive) | 3.56 µM (inactive) | 16.1 | 
OCC1CCC(n2cnc3c(O)ncnc32)O1 (stereo not drawn) | > 100 µM (inactive) | > 100 µM (inactive) | > 100 µM (inactive) | > 100 µM (inactive) |  | > 1000 µM (inactive) | > 1000 µM (inactive) | > 100 µM (inactive) | > 100 µM (inactive) | > 100 µM (inactive) | > 1000 µM (inactive) | > 100 µM (inactive) |  | > 100 µM (inactive) | > 100 µM (inactive) | > 1000 µM (inactive) | > 100 µM (inactive) | > 100 µM (inactive) | > 100 | > 1000 µM (inactive)
Cc1[nH]c(=O)nc(N/N=C/c2ccc(Cl)cc2)c1C(=O)Nc1ccc(Cl)cc1 | 7.59 µM (inactive) | 47.3 µM (inactive) | 53.5 µM (inactive) | 18.2 µM (inactive) | 20.6 µM (inactive) | 54.8 µM (inactive) | 19.4 µM (inactive) | 9.95 µM (inactive) | 8.97 µM (inactive) | > 100 µM (inactive) | 44.3 µM (inactive) | > 100 µM (inactive) | 6.05 µM (inactive) | 35.6 µM (inactive) | 82.4 µM (inactive) | > 60.1 µM (inactive) | > 100 µM (inactive) | > 100 µM (inactive) | 38.5 | 13.7 µM (inactive)
Cc1ccccc1NC(=O)CC(=O)NNCC(=O)Nc1nnc(-c2ccccc2)s1 | 64.9 µM (inactive) | > 100 µM (inactive) | > 100 µM (inactive) | 43.6 µM (inactive) | > 100 µM (inactive) | 54.2 µM (inactive) | 31.9 µM (inactive) | 18 µM (inactive) | 31.4 µM (inactive) | 26.5 µM (inactive) | 32.1 µM (inactive) | 31.5 µM (inactive) | 24.7 µM (inactive) | > 100 µM (inactive) | > 100 µM (inactive) |  | > 100 µM (inactive) | > 100 µM (inactive) | 58.2 | 
Cc1ccc2nc3c(C)c(Cl)c(=O)cc-3sc2c1 | 17.8 µM (inactive) | 8.57 µM (inactive) | 28.2 µM (inactive) | 2.97 µM (inactive) | 23.3 µM (inactive) | 18.5 µM (inactive) | 49.7 µM (inactive) | 18 µM (inactive) | 6.97 µM (inactive) | 5.06 µM (inactive) | 5.86 µM (inactive) | 2.59 µM (inactive) | 14.5 µM (inactive) | 26.6 µM (inactive) | 34.3 µM (inactive) | 8.93 µM (inactive) | 78 µM (inactive) | 40.3 µM (inactive) | 10.6 | 58.1 µM (inactive)
O=CN/C=C\c1cc(O)ccc1O | 10.6 µM (inactive) | 11.6 µM (inactive) | 12.7 µM (inactive) | 14.5 µM (inactive) | 28.4 µM (inactive) | 15 µM (inactive) | 15.8 µM (inactive) | 12.7 µM (inactive) | 12.2 µM (inactive) | 14.5 µM (inactive) | 3.91 µM (inactive) | 10.4 µM (inactive) | > 100 µM (inactive) | 14 µM (inactive) | > 100 µM (inactive) |  | 14.8 µM (inactive) | > 100 µM (inactive) | 9.31 | 
